# Measurements as given in US20180303853A1, “COMPOSITIONS AND METHODS FOR TREATING BACTERIAL INFECTIONS USING CEFTAROLINE” (priority 2017, published 2018).
# How the values were obtained:
# [1] = human, in vivo
# Protocol: (§1) Study drug: Ceftaroline fosamil was administered in two consecutive 300 mg intravenous (IV) infusions over 30 minutes, every 12 hours (q12h). The 600-mg dose of ceftaroline fosamil infused over 60 minutes was split into two infusions in order to maintain the blind. For subjects with moderate renal impairment (30 mL/min<CrCl≤50 mL/min), as estimated by the Cockroft-Gault formula, unblinded pharmacy staff or unblinded study staff could adjust the dose of ceftaroline fosamil to two consecutive 200 mg infusions and readjust dose to two 300 mg infusions when renal function improved (CrCl>50 mL/min). The duration of treatment was between 5 to 7 days.
# (§2) All subjects initially received two doses (500 mg every 12 hours) of oral adjunctive therapy with clarithromycin following randomization.
# (§3) All subjects who received any amount of study drug were included in the safety analysis. Safety measures included monitoring for adverse events (AE) up to TOC and serious adverse events (SAE) through LFU; recording vital signs, physical examination, electrocardiogram (ECG), and clinical laboratory findings (clinical chemistry, hematology, and urinalysis); at prespecified times throughout the study.
# [2] = human, in vivo; remark: listed apart in the source
# Protocol: The pharmacokinetics of ceftaroline were evaluated in adolescent patients (ages 12 to 17) with normal renal function.
# No dose adjustment is required based on gender.
# [3] = test system: community-acquired pneumonia (CAP); assay: Example 4 Phase 3 study, ceftaroline vs ceftriaxone in CAP, efficacy; assay type: in vivo, human
# From the text: The secondary objectives of the study were to evaluate the following: clinical response at end-of-therapy (EOT); the microbiological favorable outcome rate at TOC; the overall (clinical and radiographic) success rate at TOC; the clinical and microbiological response by pathogen at TOC; clinical relapse at late follow-up (LFU); microbiological reinfection/recurrence at LFU; and safety.
# The following criteria were used for evaluation: The primary efficacy outcome measures were the pet-subject clinical cure rate at test-of-cure (TOC) in the CE and MITTE Populations Subjects were considered clinically cured at TOC if they had total resolution of all signs and symptoms of the baseline infection, or improvement of the infection such that no further antimicrobial therapy was necessary.
# Non-inferiority was concluded if the lower limit of the 95% CI was higher than −10%.
# [4] = Example 5 CAP study, safety
# Protocol: as §1, §2, §3
# [5] = test system: complicated skin and skin structure infections (cSSSI); assay: Two Phase 3 studies in cSSSI, clinical cure at TOC; assay type: in vivo, human; conditions: co-primary CE and MITT populations
# Protocol: A total of 1396 adults with clinically documented complicated skin and skin structure infections (cSSSI) were enrolled in two randomized, multi-center, multinational, double-blind, studies comparing 600 mg ceftaroline fosamil administered intravenously over 1 hour every 12 hours to vancomycin plus aztreonam [1 g vancomycin administered intravenously over 1 hour followed by 1 g aztreonam administered intravenously over 1 hour every 12 hours]. Patients with cSSSI (deep/extensive cellulitis, a major abscess, a wound infection [surgical or traumatic], infected insect bites, burns or ulcers, lower extremity infection in patients with diabetes mellitus or peripheral vascular disease), were enrolled in the studies. Treatment duration was […] days. A switch to oral therapy was not allowed. The Modified Intent-to-Treat (MITT) population included all patients who received any amount of study drug according to their randomized treatment group.
# The primary efficacy endpoint was clinical response at the Test of Cure (TOC) visit in the co-primary CE and MITT populations (Table 2). […] In a subgroup analysis (CE population), the comparative clinical cure rates between the ceftaroline group and the vancomycin plus aztreonam group were not affected by age, gender, race, ethnicity, or weight.
# [6] = test system: CYP1A1, CYP1A2, CYP2A6, CYP2B6, CYP2C8, CYP2C9, CYP2C19, CYP2D6, CYP2E1 and CYP3A4; assay: Cytochrome P450 inhibition in human liver microsomes; assay type: in vitro ADME; conditions: microsomes
# [7] = human, in vivo; remark: listed apart in the source
compound,measurement,setting,value
"CCO/N=C(\C(=O)N[C@@H]1C(=O)N2C(C(=O)[O-])=C(Sc3nc(-c4cc[n+](C)cc4)cs3)CS[C@H]12)c1nsc(N)n1 [Ceftaroline, ceftaroline]",Adverse event: Constipation,[1],7 (2.3) %
same,TEAEs assessed as drug related by the Investigators,[1],17.1%
same,study-drug-related TEAE: headache,[1],1.0%
same,study-drug-related TEAE: hepatic enzyme increased,[1],0.3%
same,study-drug-related TEAE: sinus bradychardia,[1],1.0%
same,AUC higher in female vs male subjects (trend),[2]; both,6-15%
same,Cmax higher in female vs male subjects (trend),[2]; both,17-22%
same,"mean recovery in the dialysate, share of the administered dose",[2]; 4 h,21.6%
same,mean AUC higher than in healthy young adults (18-45 years),"[2]; iv, 600 mg",~33%
same,"Difference (ceftaroline minus ceftriaxone), Clinical Cure Rate at EOT","[3]; Example 4, CE",6.0%
same,"Difference (ceftaroline minus ceftriaxone), Clinical Success at TOC","[3]; Example 4, CE",4.9%
same,Clinical Success at the TOC Visit,"[3]; Example 4, CE population",193 (82.1) %
same,Per-subject Clinical Cure Rate at the EOT Visit,"[3]; Example 4, CE population",202 (86.0) %
same,"Difference (ceftaroline minus ceftriaxone), Favorable Microbiological Outcome at TOC","[3]; Example 4, ME",1.8%
same,Favorable Microbiological Outcome at the TOC Visit,"[3]; Example 4, ME population",72 (84.7) %
same,"Difference (ceftaroline minus ceftriaxone), Clinical Cure Rate at EOT","[3]; Example 4, MITTE",7.4%
same,"Difference (ceftaroline minus ceftriaxone), Clinical Success at TOC","[3]; Example 4, MITTE",5.9%
same,Clinical Success at the TOC Visit,"[3]; Example 4, MITTE population",235 (81.3) %
same,Per-subject Clinical Cure Rate at the EOT Visit,"[3]; Example 4, MITTE population",249 (86.2) %
same,"Difference (ceftaroline minus ceftriaxone), Favorable Microbiological Outcome at TOC","[3]; Example 4, mMITTE",0.4%
same,Favorable Microbiological Outcome at the TOC Visit,"[3]; Example 4, mMITTE population",74 (82.2) %
same,hemolytic anemia,[4],No evidence of hemolytic anemia
same,percentage of deaths,[4],1.7%
same,"clinical response at TOC, comparison with comparator",[5],non-inferior to vancomycin plus aztreonam
same,inhibition of major cytochrome P450 isoenzymes,[6],neither ceftaroline fosamil nor ceftaroline inhibits
same,"change in exposure (Cmax and AUC) with concomitant CYP450 inhibitors, inducers, substrates",[7],did nor identify any clinically relevant increases
